# Assay results published in patent publication US11667602B2, “Compounds and their use” (AstraZeneca AB, priority 2020, dated 2023).
# pEC50: −log10 of the molar value.
# Target: T1, human RXFP1 (Homo sapiens, UniProt Q9HBX9)
# T1 sequence (Q9HBX9 1-757): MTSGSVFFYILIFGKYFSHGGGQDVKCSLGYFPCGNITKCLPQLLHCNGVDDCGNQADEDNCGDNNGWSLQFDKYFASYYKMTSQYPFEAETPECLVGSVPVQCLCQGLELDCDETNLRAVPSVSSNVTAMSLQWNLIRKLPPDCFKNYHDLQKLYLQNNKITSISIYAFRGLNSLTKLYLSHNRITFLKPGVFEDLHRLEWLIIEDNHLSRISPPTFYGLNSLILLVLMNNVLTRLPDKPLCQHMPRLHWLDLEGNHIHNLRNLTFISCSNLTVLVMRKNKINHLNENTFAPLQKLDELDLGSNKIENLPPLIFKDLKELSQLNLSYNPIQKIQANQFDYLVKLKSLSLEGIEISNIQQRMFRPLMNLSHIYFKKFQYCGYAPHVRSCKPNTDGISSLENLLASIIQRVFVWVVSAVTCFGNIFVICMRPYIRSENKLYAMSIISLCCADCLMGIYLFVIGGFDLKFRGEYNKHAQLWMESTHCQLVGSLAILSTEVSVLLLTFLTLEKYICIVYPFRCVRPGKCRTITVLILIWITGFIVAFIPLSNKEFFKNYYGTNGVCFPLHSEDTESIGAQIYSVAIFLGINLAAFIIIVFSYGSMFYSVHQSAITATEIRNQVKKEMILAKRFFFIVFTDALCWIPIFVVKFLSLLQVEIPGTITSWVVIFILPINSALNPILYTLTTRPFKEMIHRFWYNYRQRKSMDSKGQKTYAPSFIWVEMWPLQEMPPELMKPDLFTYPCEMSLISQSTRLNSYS
# Assay: RXFP1 Hu cAMP (Test A)
# Format: cell-based
# Set-up: expressed in transfected cells; host or cells: Jump-In T-REx CHO-K1 cells (ThermoFisher), induced with 10 ng/ml doxycycline for 24 h
# Settings: RXFP1 Hu cAMP; for pEC50: read-out: Test A EC50
# Text: To screen for modulators of hRXFP1, an assay identifying compounds that stimulate cAMP production via the Gs-coupled hRXFP1 receptor was used. cAMP HiRange HTRF kit (available from CisBio Bioassays, France; catalogue number 62AM6PEJ) was employed in large according to manufacturer's recommendations for detection of cAMP. The HTRF method is a competitive immunoassay between native cAMP produced by cells and cAMP labeled with the dye d2. The tracer binding is visualized with a cryptate labeled antibody for cAMP and the signal is thus inversely proportional to the amount of produced cAMP.
# Cells: Jump-In™ T-REx™ CHO-K1 Cells (ThermoFisher) stably transfected with human RXFP1 was employed. Cells were induced to express human RXFP1 by treatment with 10 ng/ml doxycycline for 24 h. Cells were then cryopreserved for long term storage.
# HTRF detection reagents: cAMP-d2 and anti-cAMP cryptate reconstituted according to CisBio instructions were diluted 1:40 in lysis buffer provided with the HTRF-kit.
# 3. 4 μL assay buffer with 1 mM IBMX (0.5 mM final concentration) to block phosphodiesterases was added with Multidrop Combi (ThermoFisher).
# 6. 4 μL cAMP-d2 in lysis buffer was added with Multidrop Combi.
# 7. 4 μL anti-cAMP cryptate in lysis buffer was added with Multidrop Combi
# 8. 2 h incubation at room temperature
# Using a cAMP standard curve, HTRF data was converted to amount cAMP produced in the samples which was subsequentially used for calculation of concentration responses. Concentration response data were fitted with a four parameter logistic fit, the Hill equation. The results from the assay are reported in Table 36 as EC50 (μM) and Sinf (%).
# Where the assay was run multiple times for the same compound, the geometric mean is reported.
# Sinf is the fitted activity level, efficacy, at infinite concentration of test compound. To facilitate comparison of efficacy data, efficacy was normalized to % effect of the response stimulated by a saturating concentration of relaxin (1 nM). Where the assay was run multiple times for the same compound, the arithmetic mean is reported.
Test A Sinf [%],pEC50,Compound
106,6.07,"CCCNC(=O)[C@H]1[C@@H]2CC[C@@H](C2)[C@H]1NC(=O)c1cc(O[C@H]2CC[C@@](C)(C(=O)O)CC2)c(C#N)cc1OC [Example 116, (1S,4s)-4-(2-Cyano-4-methoxy-5-(((1S,2R,3S,4R)-3-(propylcarbamoyl)bicyclo[2.2.1]heptan-2-yl)carbamoyl)phenoxy)-1-methylcyclohexane-1-carboxylic acid]"
88,6.35,"COc1cc(F)c(OC2CCC(C)(C(=O)O)CC2)cc1C(=O)NC1C2CCC(CC2)C1C(=O)NCC1(C)CCC1 (single isomer, unassigned) [Example 543, (1R,4s)-4-(2-Fluoro-4-methoxy-5-(((2S*,3R*)-3-(((1-methylcyclobutyl)methyl)carbamoyl)bicyclo[2.2.2]octan-2-yl)carbamoyl)phenoxy)-1-methylcyclohexane-1-carboxylic acid]"
67,5.11,COc1cc(F)c(-c2ccc(C(=O)O)cc2)cc1C(=O)N[C@H]1[C@@H](C(=O)N[C@H]2CCCN(S(=O)(=O)C(F)(F)F)C2)[C@@H]2C=C[C@H]1C2 (racemic) [Example 311]
114,6.59,COc1cc(F)c(-c2ccc(C(=O)O)cc2)cc1C(=O)N[C@@H]1[C@@H]2CC[C@@H](C2)[C@@H]1C(=O)Nc1cccc(S(=O)(=O)C(F)(F)F)c1 (racemic) [Example 303]
116,7.80,COc1cc(C#N)c(O[C@H]2CC[C@@](C)(C(=O)O)CC2)cc1C(=O)N[C@@H]1[C@H]2CC[C@H](C2)[C@@H]1C(=O)NC[C@@H](C)c1ccccc1 [Example 125]
107,6.10,"COc1cc(F)c(-c2nnc(CCC(=O)O)s2)cc1C(=O)N[C@H]1C(C(=O)Nc2cccc(S(=O)(=O)C(F)(F)F)c2)[C@@H]2CC[C@H]1C2 (stereo partly drawn) [Example 322, 3-(5-(2-Fluoro-4-methoxy-5-(((1S,2R,3S,4R)-3-((3-((trifluoromethyl)sulfonyl)phenyl)carbamoyl)bicyclo[2.2.1]heptan-2-yl)carbamoyl)phenyl)-1,3-,4-thiadiazol-2-yl)propanoic acid]"
95,8.12,"CC1(CNC(=O)C2C3CCC(CC3)C2NC(=O)c2cc(O[C@H]3CC[C@@](C)(C(=O)O)CC3)c(C#N)cc2F)CCC1 (single isomer, unassigned) [Example 588, (1R,4s)-4-(2-Cyano-4-fluoro-5-(((2S*,3R*)-3-(((1-methylcyclobutyl)methyl)carbamoyl)bicyclo[2.2.2]octan-2-yl)carbamoyl)phenoxy)-1-methylcyclohexane-1-carboxylic acid]"
98,6.92,COc1cc(F)c(O[C@H]2CC[C@@H](C(=O)O)CC2)cc1C(=O)N[C@H]1[C@@H](C(=O)Nc2cccc(S(=O)(=O)C(F)(F)F)c2)[C@@H]2C=C[C@H]1C2 (racemic) [Example 495]
,< 4.40,"COc1cc(F)c(Cn2nccc2C(=O)O)cc1C(=O)N[C@@H]1[C@H]2CC[C@H](C2)[C@@H]1C(=O)Nc1cccc(S(=O)(=O)C(F)(F)F)c1 [Example 221, 1-(2-Fluoro-4-methoxy-5-(((1S,2R,3S,4R)-3-((3-((trifluoromethyl)sulfonyl)phenyl)carbamoyl)bicyclo[2.2.1]heptan-2-yl)carbamoyl)benzyl)-1H-pyrazole-5-carboxylic acid]"
89,6.92,CCc1cc(OC)c(C(=O)N[C@@H]2[C@H]3CC[C@H](C3)[C@@H]2C(=O)NC23CC(F)(C2)C3)cc1O[C@H]1CC[C@@](C)(C(=O)O)CC1 [Example 383]
101,6.72,"COc1cc(F)c(-c2cnc(CCC(=O)O)cn2)cc1C(=O)N[C@@H]1[C@@H]2CC[C@@H](C2)[C@@H]1C(=O)Nc1cccc(S(=O)(=O)C(F)(F)F)c1 (racemic) [Example 324, rac-3-(5-(2-Fluoro-4-methoxy-5-(((1R,2R,3S,4S)-3-((3-((trifluoromethyl)sulfonyl)phenyl)carbamoyl)bicyclo[2.2.1]heptan-2-yl)carbamoyl)phenyl)pyrazin-2-yl)propanoic acid]"
115,7.92,COc1cc(F)c(O[C@H]2CC[C@@H](C(=O)O)CC2)cc1C(=O)N[C@H]1[C@@H](C(=O)Nc2ccc(F)c(S(=O)(=O)C(F)(F)F)c2)[C@@H]2C=C[C@H]1C2 [Example 489]
100,6.89,COc1cc(F)c(-c2ccc(C(=O)O)c(N(C)C)c2)cc1C(=O)N[C@@H]1[C@H]2CC[C@H](C2)[C@@H]1C(=O)Nc1cccc(S(=O)(=O)C(F)(F)F)c1 [Example 239]
86,6.70,COc1cc(F)c(O[C@H]2CC[C@@](C)(C(=O)O)CC2)cc1C(=O)N[C@@H]1CCOC[C@@H]1C(=O)Nc1cccc(S(=O)(=O)C(F)(F)F)c1 (racemic) [Example 341]
83,4.96,"COc1cc(F)c(-c2nc(C(=O)O)co2)cc1C(=O)N[C@H]1[C@@H](C(=O)Nc2cccc(S(=O)(=O)C(F)(F)F)c2)[C@@H]2C=C[C@H]1C2 (racemic) [Example 275, rac-2-(2-Fluoro-4-methoxy-5-(((1R,2R,3S,4S)-3-((3-((trifluoromethyl)sulfonyl)phenyl)carbamoyl)bicyclo[2.2.1]hept-5-en-2-yl)carbamoyl)phenyl)oxazole-4-carboxylic acid]"
102,7.22,"COc1cc(F)c(O[C@H]2CC[C@@](C)(C(=O)O)CC2)cc1C(=O)N[C@@H]1[C@H]2CC[C@H](C2)[C@@H]1C(=O)NC1CCCC1(C)C (relative stereo) [Example 503, (1S,4s)-4-(5-(((1S,2R,3S,4R)-3-(((R*)-2,2-Dimethylcyclopentyl)carbamoyl)bicyclo[2.2.1]heptan-2-yl)carbamoyl)-2-fluoro-4-methoxyphenoxy)-1-methylcyclohexane-1-carboxylic acid]"
100,4.96,"COc1cc(C#N)c(O[C@H]2CC[C@@](C)(C(=O)O)CC2)cc1C(=O)NC1C2CCC(CC2)C1C(=O)NCC1(C)CCC1 (single isomer, unassigned) [Example 538, (1R,4s)-4-(2-Cyano-4-methoxy-5-(((2S*,3R*)-3-(((1-methylcyclobutyl)methyl)carbamoyl)bicyclo[2.2.2]octan-2-yl)carbamoyl)phenoxy)-1-methylcyclohexane-1-carboxylic acid]"
105,,COc1cc(F)c(-c2cccc(C(=O)O)c2F)cc1C(=O)N[C@H]1[C@@H](C(=O)Nc2cccc(S(=O)(=O)C(F)(F)F)c2)[C@@H]2C=C[C@H]1C2 (racemic) [Example 233]
92,6.21,COc1cc(C#N)c(Oc2ccc(C(=O)O)cc2)cc1C(=O)N[C@@H]1[C@H]2CC[C@H](C2)[C@@H]1C(=O)NCC1(C)CCC1 [Example 483]

Compound,Test A Sinf [%],pEC50
"(1R,4s)-4-(2-Fluoro-5-(((3S*,4S*)-4-((4-fluoro-3-(pentafluoro-λ6-sulfaneyl)phenyl)carbamoyl)tetrahydro-2H-pyran-3-yl)carbamoyl)-4-methoxyphenoxy)-1-methylcyclohexane-1-carboxylic acid [Example 575]",101,
"(1R,4s)-4-(2-Fluoro-5-(((1S*,2R*)-2-((4-fluoro-3-(pentafluoro-λ6-sulfaneyl)phenyl)carbamoyl)cyclobutyl)carbamoyl)-4-methoxyphenoxy)-1-methylcyclohexane-1-carboxylic acid [Example 571]",100,
